{
  "source": "patent US20220098197A1",
  "about": "“SALTS OF HETEROCYCLIC COMPOUND AND USE THEREOF” (priority 2019, published 2022)",
  "type_in_all_cases": "in vivo, Balb/c mice",
  "key": {"CS-induced ALI mice": {"tested_on": "CS-induced ALI mice", "assay": "CS-induced lung injury model: partial pressure of oxygen (PO2)", "conditions": "CT-NA 10 and 30 mg/kg intragastric; 24 hrs after last CS exposure; p<0.01", "protocol": "Specific pathogen-free (SPF) female Balb/c mice (22-28 g; aged 8 weeks) were purchased from Shanghai SIPPR-BK Experimental Animal Co., Ltd. […] Model preparation: The mice were randomly divided into 5 groups (12 mice in each group), which were the control group (the mice were exposed to fresh air), the saline group (the mice were exposed to cigarette smoke), dexamethasone (Dex) group (1 mg/kg) (the mice were exposed to cigarette smoke), CT-NA 10 mg/kg group and CT-NA 30 mg/kg group (the mice were exposed to cigarette smoke). According to the grouping, the mice were intragastrically administered saline, Dex and CT-NA, respectively. Thereafter, the mice were exposed to fresh air or cigarette smoke generated from 3R4F research-grade cigarettes (containing about 600 mg TPM/m^3 and 29.9 mg nicotine/m^3) in a cuboid plastic box (65×50x×45 cm). Ten cigarettes were burned every day for seven days. After one cigarette was burned, the next cigarette was ignited. The daily body weight and general condition of the mice were checked. 24 hrs after the last exposure to the cigarette smoke, the partial pressure of oxygen (PO2) of all mice was measured by the Moor VMS-OXY™ measuring instrument, which was used to measure the oxygenated/deoxygenated hemoglobin concentration and oxygen saturation (percentage) in the microcirculation at the wavelength range of 500 to 650 nm. […]"}, "LPS-induced ALI mice [1]": {"tested_on": "LPS-induced ALI mice", "assay": "LPS-induced ALI model: BALF cell counting", "protocol": "(§1) Specific pathogen-free (SPF) Balb/c mice (♂/♀; 20-26 g; 8 weeks old) were purchased from Shanghai SIPPR-BK Experimental Animal Co., Ltd. Mice were kept in an isolated ventilated cage in an environment of 40-60% humidity, 24±2° C., and 12 hrs/12 hrs dark-light cycle, and had free access to food and water. The method for preparing the LPS-induced ALI model was simply described as follows. The mice were randomly divided into a control group (12 mice) and an LPS group (48 mice). The LPS group (48 mice) was further divided into four subgroups (12 mice in each subgroup). […] 24 hrs after LPS challenge, the oxygen saturation (SO2) of all mice was measured by a Moor VMS-OXY™ instrument which measured SO2 (%) in the microcirculation at the wavelength range of 500 to 650 nm. […]\nThe mice were euthanized to expose the trachea, and then the right lungs were lavaged three times with 0.4 mL/time of sterile normal saline containing bovine serum albumin (BSA) and 5000 IU/L heparin to collect the BALF via tracheal tube. […] The removed lung tissues were weighted after aspirating the surface blood, and the lung weight coefficient was calculated. The lung weight coefficient was an indicator of pulmonary edema, and it was measured by dividing the individual lung weight of each mouse by its total body weight."}, "LPS-induced ALI mice [2]": {"tested_on": "LPS-induced ALI mice", "assay": "LPS-induced ALI model: pro-inflammatory cytokines and chemokines in BALF by ELISA", "conditions": "CT-NA 10 or 30 mg/kg, Dex 1 mg/kg, dose-dependent, P<0.05 or P<0.01", "protocol": "as §1, with “subgroup). The unanaesthetized mice in the four subgroups of LPS were intragastrically administered with normal saline (NS), CT-NA at 10 mg/kg or 30 mg/kg, and Dex at 1 mg/kg, respectively.” for “subgroup).”\nThe expression levels of pro-inflammatory cytokines (TNF-α, IL-1β, IL-6), and chemokines (KC, mouse IL-8 homolog) in the BALF supernatant were determined by using respective ELISA determination kits according to the instruction manual. After measurements of the optical density at 450 nm, the expression level was calculated via the standard curves."}, "LPS-induced ALI mice [3]": {"tested_on": "LPS-induced ALI mice", "assay": "LPS-induced ALI model: oxygen saturation (SO2)", "conditions": "CT-NA 10 or 30 mg/kg (P<0.01, dose-dependent), Dex 1 mg/kg; 24 hrs after LPS", "protocol": "as §1, with “subgroup). The unanaesthetized mice in the four subgroups of LPS were intragastrically administered with normal saline (NS), CT-NA at 10 mg/kg or 30 mg/kg, and Dex at 1 mg/kg, respectively. One hour later, the mice were anesthetized with sodium pentobarbital (intraperitoneal injection at 40 mg/kg), and then subjected to intratracheal instillation of NS to control group and LPS (4 mg/kg) to all LPS subgroups. 12 hrs later, the unanaesthetized mice of the LPS group were intragastrically administered with NS, CT-NA at 10 mg/kg or 30 mg/kg, or Dex at 1 mg/kg, respectively (FIG. 16).” for “subgroup).”"}},
  "data": [
    {"smiles": "CN([C@@H]1CCc2c(CC(=O)[O-])c3cccnc3n2C1)S(=O)(=O)c1ccc(F)cc1.[Na+]", "note": "[Sodium salt hydrate]", "values": [
      {"measurement": "partial pressure of oxygen (PO2)", "setting": "CS-induced ALI mice", "result": "significantly elevated"},
      {"measurement": "BALF cell infiltration, performance compared with Dex", "setting": "LPS-induced ALI mice [1]; CT-NA 30 mg/kg versus 1 mg/kg Dex", "result": "essentially same performance as that of 1 mg/kg Dex"},
      {"measurement": "LPS-induced increase of total cells, neutrophils and macrophages in BALF", "setting": "LPS-induced ALI mice [1]; CT-NA 10 and 30 mg/kg intragastric 1 h before and 12 hrs after LPS, BALF 24 hrs after LPS, P<0.01", "result": "significantly and dose-dependently attenuated"},
      {"measurement": "production of IL-1β, TNF-α, IL-6 and KC in BALF", "setting": "LPS-induced ALI mice [2]", "result": "effectively reduced"},
      {"measurement": "oxygen saturation (SO2)", "setting": "LPS-induced ALI mice [3]", "result": "significantly increased"}
    ]}
  ]
}
